Test results published in PubChem BioAssay AID192 (DTP/NCI, 2004).
“And” between values parts separate entries of the source, which are not always exact repeats. Equal values may be shown once. Inconclusive results and toxic doses are left out.

Tested on: BDF1 mice, B16 melanoma ip, median survival T/C
Assay: NCI In Vivo Anticancer Drug Screen. Data for tumor model B16 Melanoma (intraperitoneal) in B6D2F1 (BDF1) mice
Details: endpoint: median survival time, higher = longer survival
Summary of the method: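 Compounds were tested in mice carrying transplantable tumors. Survival or tumor size was recorded, and each value is the treated-group measurement (T) divided by that of the vehicle-treated control group (C).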

[1] = dose: 12.5 mg/kg/injection, schedule: Q01DX009 (ip), vehicle: saline with Tween-80
[2] = dose: 25.0 mg/kg/injection, schedule: Q01DX009 (ip), vehicle: saline with Tween-80
[3] = dose: 50.0 mg/kg/injection, schedule: Q01DX009 (ip), vehicle: saline with Tween-80
[4] = dose: 50.0 mg/kg/injection, schedule: Q01DX009 (ip), vehicle: Klucel (hydroxypropylcellulose) (HPC)
[5] = dose: 6.25 mg/kg/injection, schedule: Q01DX009 (ip), vehicle: Klucel (hydroxypropylcellulose) (HPC)
[6] = dose: 12.5 mg/kg/injection, schedule: Q01DX009 (ip), vehicle: Klucel (hydroxypropylcellulose) (HPC)
[7] = dose: 25.0 mg/kg/injection, schedule: Q01DX009 (ip), vehicle: Klucel (hydroxypropylcellulose) (HPC)
[8] = dose: 100.0 mg/kg/injection, schedule: Q01DX009 (ip), vehicle: saline with Tween-80
[9] = dose: 200.0 mg/kg/injection, schedule: Q01DX009 (ip), vehicle: saline with Tween-80

## C[C@]12CC[C@H](O)C[C@@]1(O)CC[C@@H]1[C@@H]2CC[C@]2(C)[C@@H](c3ccc(=O)oc3)CC[C@]12O
dose: 1.25 mg/kg/injection, schedule: Q01DX009 (ip), vehicle: Klucel (hydroxypropylcellulose) (HPC)
  T/C: 94 % of control
dose: 2.5 mg/kg/injection, schedule: Q01DX009 (ip), vehicle: Klucel (hydroxypropylcellulose) (HPC)
  T/C: 92 % of control
dose: 5.0 mg/kg/injection, schedule: Q01DX009 (ip), vehicle: Klucel (hydroxypropylcellulose) (HPC)
  T/C: 92 % of control
dose: 10.0 mg/kg/injection, schedule: Q01DX009 (ip), vehicle: Klucel (hydroxypropylcellulose) (HPC)
  T/C: 94 % of control
[1]
  T/C: 96 % of control
dose: 20.0 mg/kg/injection, schedule: Q01DX009 (ip), vehicle: Klucel (hydroxypropylcellulose) (HPC)
  T/C: 94 % of control
[2]
  T/C: 94 % of control
[3]
  T/C: 92 % of control

## O=C(/C=C/c1cccc2ccccc12)c1ccc(Cl)cc1
[4]
  T/C: 92 % of control
dose: 50.0 mg/kg/injection, schedule: Q04DX003 (ip), vehicle: Klucel (hydroxypropylcellulose) (HPC)
  T/C: 103 % of control
dose: 100.0 mg/kg/injection, schedule: Q01DX009 (ip), vehicle: Klucel (hydroxypropylcellulose) (HPC)
  T/C: 96 % of control
dose: 100.0 mg/kg/injection, schedule: Q04DX003 (ip), vehicle: Klucel (hydroxypropylcellulose) (HPC)
  T/C: 100 % of control
dose: 200.0 mg/kg/injection, schedule: Q01DX009 (ip), vehicle: Klucel (hydroxypropylcellulose) (HPC)
  T/C: 92 % of control
dose: 200.0 mg/kg/injection, schedule: Q04DX003 (ip), vehicle: Klucel (hydroxypropylcellulose) (HPC)
  T/C: 93 % of control

## CCCc1c(Cl)nc(Cl)nc1Cl
[5]
  T/C: 110 % of control
[6]
  T/C: 103 % of control
[7]
  T/C: 101 % of control and 109 % of control

## O=C(NC(C(=O)O)c1ccccc1)OCc1ccccc1 (stereo not drawn)
[3]
  T/C: 97 % of control
[8]
  T/C: 98 % of control
[9]
  T/C: 98 % of control

## C=C1C(=O)OC2CC1C(OC(C)=O)CC1(C)OC1CCC1(C)OC1CCC2(C)O (stereo not drawn)
[5]
  T/C: 102 % of control
[6]
  T/C: 97 % of control
[7]
  T/C: 100 % of control
[4]
  T/C: 92 % of control

## CCOC(=O)N1C(=O)c2ccccc2C1=O
[2]
  T/C: 94 % of control
[3]
  T/C: 94 % of control
[8]
  T/C: 86 % of control

## CC(=O)O[C@H]1C(=O)O[C@@H]2C[C@H]3C(C)=CC(=O)[C@@H](O)[C@]3(C)[C@H]3[C@@]4(O)OC[C@]32[C@@H]1[C@@H](C)[C@H]4O
dose: 0.39 mg/kg/injection, schedule: Q01DX009 (ip), vehicle: saline with Tween-80
  T/C: 101 % of control
dose: 0.78 mg/kg/injection, schedule: Q01DX009 (ip), vehicle: saline with Tween-80
  T/C: 105 % of control
dose: 1.5 mg/kg/injection, schedule: Q01DX009 (ip), vehicle: Klucel (hydroxypropylcellulose) (HPC)
  T/C: 112 % of control
dose: 1.5 mg/kg/injection, schedule: Q01DX009 (ip), vehicle: saline
  T/C: 112 % of control
dose: 1.56 mg/kg/injection, schedule: Q01DX009 (ip), vehicle: saline with Tween-80
  T/C: 96 % of control
dose: 3.13 mg/kg/injection, schedule: Q01DX009 (ip), vehicle: saline with Tween-80
  T/C: 107 % of control
dose: 6.25 mg/kg/injection, schedule: Q01DX009 (ip), vehicle: saline with Tween-80
  T/C: 107 % of control
dose: 12.0 mg/kg/injection, schedule: Q01DX009 (ip), vehicle: saline
  T/C: 164 % of control
[1]
  T/C: 118 % of control

## CCCCCCCCCCCCCCCCCC[N+](C)(C)c1nc(Cl)nc(Cl)n1
dose: 3.13 mg/kg/injection, schedule: Q01DX009 (ip), vehicle: other
  T/C: 98 % of control
dose: 6.25 mg/kg/injection, schedule: Q01DX009 (ip), vehicle: other
  T/C: 100 % of control
dose: 12.5 mg/kg/injection, schedule: Q01DX009 (ip), vehicle: other
  T/C: 99 % of control

## CCOC(=O)C(=CN1CCOCC1)C(=O)OCC
[8]
  T/C: 90 % of control
dose: 100.0 mg/kg/injection, schedule: Q04DX003 (ip), vehicle: saline with Tween-80
  T/C: 100 % of control
[9]
  T/C: 98 % of control
dose: 200.0 mg/kg/injection, schedule: Q04DX003 (ip), vehicle: saline with Tween-80
  T/C: 102 % of control
dose: 400.0 mg/kg/injection, schedule: Q01DX009 (ip), vehicle: saline with Tween-80
  T/C: 98 % of control
dose: 400.0 mg/kg/injection, schedule: Q04DX003 (ip), vehicle: saline with Tween-80
  T/C: 109 % of control

## CCOP(=O)(CCCCN1C(=O)c2ccccc2C1=O)OCC
dose: 100.0 mg/kg/injection, schedule: Q01DX009 (ip), vehicle: saline
  T/C: 104 % of control
dose: 200.0 mg/kg/injection, schedule: Q01DX009 (ip), vehicle: saline
  T/C: 96 % of control
dose: 400.0 mg/kg/injection, schedule: Q01DX009 (ip), vehicle: saline
  T/C: 103 % of control
